In PubChem BioAssay AID540252 (Sanford-Burnham Center for Chemical Genomics, 2011):
The source made the active and inactive calls. How the calls were made is not given here.

target: glucose-6-phosphate dehydrogenase-6-phosphogluconolactonase (Plasmodium falciparum 3D7); assay: PfG6PD enzyme inhibitors, direct NADPH readout, dose response, orthogonal assay, biochemical, end-point NADPH detection (AID 540252); conditions: purified PfG6PD enzyme

| SMILES | IC50 |
| --- | --- |
| COc1cc(/C=C/C(=O)c2ccc([N+](=O)[O-])o2)ccc1O | > 80 µM (inactive) |
| O=C(Cn1sc2ccccc2c1=O)NC12CC3CC(CC(C3)C1)C2 | 15.1 µM |
| COc1cc(/C=C2\SC(c3ccc(C)cc3)=NC2=O)ccc1O | > 80 µM (inactive) |
| O=c1c2cc(F)ccc2sn1-c1ccccc1Cl | 13.8 µM |
| COc1ccccc1N1C(=O)C=C(Sc2nc(C)cc(C)n2)C1=O | > 80 µM (inactive) |
| NC1CCc2cc(O)c(O)cc2C1 (configuration not stated) | 27.5 µM |
| Cc1noc(C(=O)Nc2sc3c(c2C#N)CCC3)c1Cl | > 80 µM (inactive) |
| N#Cc1ccc(N=c2ssnc2Cl)cc1 | 49 µM |
| O=C1C=CC2=C3c4cc(O)c(O)cc4CC3(O)COC2=C1O (configuration not stated) | > 80 µM (inactive) |
| CC(NC(=O)c1sc2cc([N+](=O)[O-])ccc2c1Cl)C(C)(C)C (configuration not stated) | > 80 µM (inactive) |
| O=C1Nc2cc(C(=O)NCCCN3CCCC3)ccc2S/C1=C/c1cccc(Cl)c1 | > 80 µM (inactive) |
| CN1CC[C@@]2(C)c3cc(O)ccc3N(C)[C@@H]12 | > 80 µM (inactive) |
| O=c1c2ccccc2sn1-c1ccc(Cl)cc1 | 17.2 µM |
| O=C(Nc1nnc(S(=O)(=O)N2CCCCC2)s1)c1ccc(Cl)cc1 | > 80 µM (inactive) |
| O=c1c2cc(C(F)(F)F)ccc2sn1-c1ccccc1 | 26.2 µM |
| O=C(Nc1nnc(S(=O)(=O)N2CCOCC2)s1)c1cccc(Br)c1 | > 80 µM (inactive) |
| CCC(=O)OCCNc1cc(Sc2nc3ccccc3s2)c2nonc2c1[N+](=O)[O-] | > 80 µM (inactive) |
| Cc1cc(=O)[nH]c(N/N=C/c2c(C)nn(-c3ccccc3)c2Cl)n1 | 19.9 µM |
| CN1CCN(C(=S)c2ccc([N+](=O)[O-])cc2)CC1 | 65.5 µM |
| CCN(CC)C(=O)c1c(C)[nH]c(=S)c(C#N)c1-c1ccco1 | > 80 µM (inactive) |
| COc1ccc2c(c1)c(=Cc1ccc(N(C)C)cc1)c1cc(-c3ccccc3)[n+](C)n12 | > 80 µM (inactive) |
| CN1CCc2cccc3c2[C@H]1Cc1ccc(O)c(O)c1-3 | > 80 µM (inactive) |
| COc1ccc(NC(=S)N(CCC(C)C)C2CCN(C(C)C)CC2)cc1Cl | > 80 µM (inactive) |
| Cc1c(Cl)c([N+](=O)[O-])nn1Cc1ccc(C(=O)N/N=C\c2cccc(Br)c2)o1 | > 80 µM (inactive) |
| CCOC(=O)c1c(OCC)[nH]c2c1cc(O)c1ccccc12 | > 80 µM (inactive) |
| CC1(OC(=O)C2CCCC2)C(=O)C=C2C=C(c3ccsc3)N(Cc3ccc4c(c3)OCO4)C=C2C1=O (configuration not stated) | > 80 µM (inactive) |

| SMILES | IC50 |
| --- | --- |
| CN1C(=O)CSc2ccc(NC(=O)N3CCc4ccccc43)cc21 | > 80 µM (inactive) |
| O=C(Sc1n[nH]c(=O)[nH]c1=O)c1ccccc1 | 23.3 µM |
| COc1cc(NCCCn2ccc(NC(=O)OCc3ccccc3)nc2=O)cc(OC)c1OC | > 80 µM (inactive) |
| Cc1ccc(NC(=O)c2cc(N3C(=O)C=CC3=O)ccc2N2CCOCC2)cc1Cl | > 80 µM (inactive) |
| COCCNC(=S)Nc1ccc(N2CCOCC2)c(S(=O)(=O)Nc2ccc(Cl)cc2)c1 | > 80 µM (inactive) |
| Cc1ccc(CNc2ccc(O)cc2)cc1 | > 80 µM (inactive) |
| C=CCN=c1scc(-c2ccco2)n1/N=C/c1ccc(O)c(O)c1O | > 80 µM (inactive) |
| CCc1ccccc1N1CSC2=C(C#N)C(c3ccccc3F)CC(=O)N2C1 (configuration not stated) | > 80 µM (inactive) |
| Nc1ccc(N(CCO)CCO)cc1 | > 80 µM (inactive) |
| O=C1C(=Cc2cccc(O)c2O)SC(=S)N1CCCN1CCOCC1 | 44.3 µM |
| COc1ccc(CCn2c(NN=C3CCCCC3)nc3c2c(=O)[nH]c(=O)n3C)cc1 | > 80 µM (inactive) |
| Cc1ccc(C)c(-n2sc3ccc(F)cc3c2=O)c1 | 10.5 µM |
| NCCNc1ccc(C(=O)N2c3ccccc3Sc3ccccc32)cc1[N+](=O)[O-] | 13.2 µM |
| COc1cc(/C=C2\CC/C(=C\c3cc(OC)c(O)c(OC)c3)C2=O)cc(OC)c1O | > 80 µM (inactive) |
| COc1cc(OC)c(C2CC(=O)N3CN(c4ccccc4)CSC3=C2C#N)cc1OC (configuration not stated) | > 80 µM (inactive) |
| CCc1nnc(NC(=O)c2ccc(Cl)nc2)s1 | > 80 µM (inactive) |
| Cn1c(-c2sccc2OCc2cccc(C(F)(F)F)c2)n[nH]c1=S | > 80 µM (inactive) |
| O=C(CCSCCC(=O)NN=Cc1ccccc1)NN=Cc1ccccc1 | > 80 µM (inactive) |
| CCCN1CCc2cccc3c2[C@H]1Cc1ccc(O)c(O)c1-3 | > 80 µM (inactive) |
| COCCn1nnnc1C(c1cc2cc(OC)c(OC)cc2[nH]c1=O)N1CCN(c2ccc(O)cc2)CC1 (configuration not stated) | > 80 µM (inactive) |
| CC(Cc1ccc(O)c(O)c1)C(C)Cc1ccc(O)c(O)c1 (configuration not stated) | 68.4 µM |
| CCN1CCN(C(=S)c2ccc(Cl)c(Cl)c2)CC1 | > 80 µM (inactive) |
| O=C(Cn1sc2ccccc2c1=O)Nc1ccc(Cl)cc1 | 15.2 µM |
| CC1(C)CN(c2ccccc2)N(C(=O)c2ccc(C#N)cc2)C1=O | > 80 µM (inactive) |
| O=C(Nc1nnc(S(=O)(=O)N2CCCC2)s1)c1cccc([N+](=O)[O-])c1 | > 80 µM (inactive) |
| Cc1cc(C)c2c(=O)n(CC(=O)Nc3ccc(Cl)cc3)sc2n1 | > 80 µM (inactive) |

| SMILES | IC50 |
| --- | --- |
| O=C(CSc1nc2ccccc2[nH]1)NC1CCCc2ccccc21 (configuration not stated) | > 80 µM (inactive) |
| Cc1ccc(Nc2cc(C)c(O)c(C)c2)cc1 | > 80 µM (inactive) |
| COc1c(O)c(O)c2oc(-c3ccccc3)cc(=O)c2c1OC | > 80 µM (inactive) |
| CCOc1ccc(NC(=O)Cn2sc3nc(C)cc(C)c3c2=O)cc1 | > 80 µM (inactive) |
| CCOc1ccc(N(CC(=O)N/N=C/c2cc([N+](=O)[O-])ccc2Cl)S(C)(=O)=O)cc1 | > 80 µM (inactive) |
| Cc1nc2ccc(Nc3nc4cc(S(=O)(=O)N5CCOCC5)ccc4o3)cc2s1 | > 80 µM (inactive) |
| COCc1cc(=O)n2[nH]c(C(C)(C)C)cc2n1 | > 80 µM (inactive) |
| OCc1ccccc1SSc1ccccc1CO | 56.2 µM |
| O=c1[nH]nc(CNc2ccc(O)cc2)c2ccccc12 | > 80 µM (inactive) |
| O=C(Nc1ccc([N+](=O)[O-])cc1Cl)c1cc(Cl)ccc1O | > 80 µM (inactive) |
| C=CCN1CCc2cccc3c2[C@H]1Cc1ccc(O)c(O)c1-3 | > 80 µM (inactive) |
| O=S(=O)(Nc1cccc2cccnc12)c1ccccc1 | > 80 µM (inactive) |
| Cc1ccc(-c2csc(NC(=O)c3ccc(Br)cc3)c2C(=O)O)cc1 | > 80 µM (inactive) |
| O=C1NC(=O)N(c2ccccc2)C(=O)/C1=C/c1ccc([N+](=O)[O-])s1 | > 80 µM (inactive) |
| Cc1c(C(=O)N(Cc2ccccc2Cl)C2CCS(=O)(=O)C2)oc2ccccc12 (configuration not stated) | > 80 µM (inactive) |
| O=C(Nc1nnc(S(=O)(=O)N2CCCCCC2)s1)c1cccc(Br)c1 | > 80 µM (inactive) |
| O=C(NC1=CC(=O)c2ccccc2C1=O)c1ccccc1 | > 80 µM (inactive) |
| Cc1ccc(S(=O)(=O)C=CS(=O)(=O)c2ccc(C)cc2)cc1 | 33.6 µM |
| CCNc1nc(NC(C)C)nc(NS(=O)(=O)c2ccc(Cl)cc2)n1 | > 80 µM (inactive) |
| O=S(=O)(Nc1cc(Sc2ncn[nH]2)c(O)c2ccccc12)c1ccccc1 | > 80 µM (inactive) |
| CCN1/C(=C/C=C/C=C/C=C/c2sc3ccccc3[n+]2CC)Sc2ccccc21 | > 80 µM (inactive) |
| N#Cc1c(C#N)c(SSc2c(C#N)c(C#N)c(N)n2-c2ccccc2)n(-c2ccccc2)c1N | > 80 µM (inactive) |
| COc1ccc(CNC(=O)Cc2cn(C)c3ccccc23)c(OC)c1 | > 80 µM (inactive) |
| CCOc1ccccc1C=NNC(=O)CCCCC(=O)NN=Cc1ccccc1OCC | > 80 µM (inactive) |
| Cn1c(=O)c2c([nH]c(=S)n2CCCc2ccccc2)n(C)c1=O | > 80 µM (inactive) |
| O=C1NC(=O)C(=Cc2ccc(-c3ccccc3[N+](=O)[O-])o2)C(=O)N1 | > 80 µM (inactive) |

| SMILES | IC50 |
| --- | --- |
| Cc1ccc(/C=C2\C(=O)NC(=S)N(c3ccccc3F)C2=O)s1 | > 80 µM (inactive) |
| COc1cccc(C2(c3cccc(OC)c3)CC2C(=O)Nc2ccc(F)cc2)c1 (configuration not stated) | > 80 µM (inactive) |
| COc1ccc2ccccc2c1C1CC(=O)N2CN(C3CCCCC3)CSC2=C1C#N (configuration not stated) | > 80 µM (inactive) |
| Cc1cccc(C(=O)Nc2nnc(S(=O)(=O)N3CCCCCC3)s2)c1 | > 80 µM (inactive) |
| Cc1ccc(SC2=C(Sc3ccc(C)cc3)C(=O)c3ccccc3C2=O)cc1 | > 80 µM (inactive) |
| COc1c(O)ccc2c1CN1CCc3cc4c(cc3C1C2)OCO4 (configuration not stated) | > 80 µM (inactive) |
| COc1ccc(Nc2cc(C)c3c(O)cccc3n2)cc1 | > 80 µM (inactive) |
| COC(=O)CCC(=O)OC1(C)C(=O)C2=CN(c3ccc(OC)cc3)C(c3ccc(OC)cc3)=CC2=C(Br)C1=O (configuration not stated) | > 80 µM (inactive) |
| Cc1cc(C)nc(NC(N)=NCCc2ccccc2)n1 | > 80 µM (inactive) |
| c1ccc(SSc2ccccn2)nc1 | 60.8 µM |
| COc1cc(N)c2ncccc2c1SC | > 80 µM (inactive) |
| COC1(OC)C=CC(=O)C=C1NC(=O)c1ccccc1OC(C)=O | > 80 µM (inactive) |
| O=C(CNC(=O)c1ccc(Br)cc1)NCC(=O)OCC(=O)c1ccc([N+](=O)[O-])cc1 | > 80 µM (inactive) |
| O=C(CNC(=O)c1cccs1)NCC(=O)OCC(=O)c1ccc([N+](=O)[O-])cc1 | 67.9 µM |
| O=C1C=CC(=O)N1c1ccc(-c2nc3ccccc3o2)cc1 | > 80 µM (inactive) |
| Cc1ccccc1-n1c(-c2ccc3ccccc3n2)n[nH]c1=S | > 80 µM (inactive) |
| COC(=O)c1cc2c(n1S(=O)(=O)c1ccc(C)cc1)C(=O)C(=O)c1[nH]cc(C(=O)OCc3ccccc3)c1-2 | > 80 µM (inactive) |
| COc1ccc(C(=O)Nc2nnc(S(=O)(=O)N3CCOCC3)s2)cc1 | > 80 µM (inactive) |
| COC(=O)[C@H](C)NC(=O)c1cc2c(cn1)[nH]c1ccccc12 | > 80 µM (inactive) |
| c1ccc(-c2nc(N3CCOCC3)s[n+]2-c2ccccc2)cc1 | > 80 µM (inactive) |
| O=C(N/N=C/c1cccc([N+](=O)[O-])c1)C(=O)N1CCCCCC1 | > 80 µM (inactive) |
| COc1cc(/C=N/n2cc(-c3ccccc3)[nH]c2=S)cc(OC)c1O | > 80 µM (inactive) |
| Cc1ccc(NC(=O)Cn2sc3ccccc3c2=O)cc1 | 15 µM |
| O=C(CNC(=O)c1ccco1)OCC(=O)c1ccc([N+](=O)[O-])cc1 | 48.4 µM |
